SMILES strings stand for the structures.

These results are taken from US20260102387A1, “IMMUNOSUPPRESSIVE COMPOUNDS” (UNIVERSITÄT BASEL, priority 2022, published 2026).

The subject of experiment [1] is BRD2, BRD3 and BRD4 proteins. Conditions: reported TPP data; cited from earlier work.
The test system of the next experiment is CMV promoter. The experiment can be described thus: EC50 analysis for CMV promoter driven RFP inhibition (non-specific activity) by flow cytometry in RBL cells. Format: cell-based, cytomegalovirus. To be noted: 48-65 h, read-out: EC50 RFP alteration. The protocol:
(§1) RBL cells expressing GFP under coronin 1 promoter and optionally with RBL cells expressing RFP under CMV promoter were mixed in equal numbers and incubated with the compounds at indicated concentrations for 48-65 h and analyzed by flow cytometry for alteration in coronin 1 promoter (GFP fluorescence), CMV promoter (RFP fluorescence) values. In addition, the cells were labelled with live-dead marker for assessing cell viability status by flow cytometry. Cycloheximide (CHX) serves as positive control and DMSO serves as negative controls. Effective Concentration (EC50) values for coronin 1 promoter inhibition via GFP fluorescence analysis, non-specific promoter inhibition via CMV promoter driven-RFP fluorescence analysis and cell viability via live/dead staining as a measure for toxicity in flow cytometry for compounds (10-22 and 50a-65a) are shown in Table 6 and Table 7. Based on the EC50 analysis of the inhibition of coronin 1 promoter driven GFP fluorescence the (4S,7R)-configurated eutomers were identified (Structures FIG. 9A-C). This is exemplified for compounds containing two stereocenters by eutomers 11c and 13a. […] Subsequent EC50 evaluations (Table 7) were performed with compound 13a as standard for relative potency normalized to a value of 1.00 (relative potency calculated as [EC50 GFP inhibition 13a]/[EC50 GFP inhibition compound of interest]).

In the next experiment the test system is RBL cells. The experiment can be described thus: Cell viability by live-dead staining (cytotoxicity), flow cytometry. The format is cell-based, Rat. Conditions: Rattus norvegicus, RBL, cell viability via live/dead staining, 48-65 h, read-out: EC50 Toxicity. On the procedure: as §1
In general terms: Flow cytometry measures light scatter and fluorescence of single cells or particles in a stream.

Experiment [2] has as its system coronin 1 promoter. Description: EC50 analysis for coronin 1 promoter driven GFP inhibition by flow cytometry in RBL cells. Format: cell-based. Conditions: for EC50: RBL, RBL cells, 48-65 h, flow cytometry. A digest of the protocol: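 RBL cells carrying coronin 1 promoter–GFP, mixed with CMV promoter–RFP cells, exposed to compounds 48–65 h and analyzed by flow cytometry with live/dead staining. EC50 derived from GFP inhibition, with RFP and viability as nonspecific and toxicity counter-reads; cycloheximide and DMSO as controls, relative potency normalized to a reference compound.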

Experiment [3] deals with coronin 1 promoter. The experiment can be described thus: Fluorescence-based screening assay: coronin 1 promoter driven GFP in RBL cells (microplate reader / microscopy). The format is cell-based. To be noted: RBL; 5 μg/ml, 48 h, microplate reader, DMSO = 100; read-out: GFP values (%). On the procedure:
The murine coronin 1 promoter sequences of SEQ ID NO: 1-6 were each cloned into a plasmid lacking a promoter (promoterless) but containing a destabilized Green Fluorescence Protein (GFP) cassette. Rat Basophil Leukemia (RBL) cells were transfected with the plasmids, stable GFP expressing cells were enriched, incubated with various compounds and assessed for coronin 1 promoter inhibition by assessing green fluorescence values (FIG. 2).
The plasmids were independently transfected into immune cells (Rat basophil Leukemia, RBL cells) to generate green and red fluorescent RBL cells that were subsequently enriched by means of flow cytometry. These cells were then mixed in equal ratio (1:1) and incubated in a 96 well plate at 100,000 cells/well in a volume of 200 μl of phenol red free RPMI supplemented with 8% fetal calf serum, L-glutamate and antibiotics (penicillin, […]) from available chemical libraries. At defined time points (8 h, 24 h and 48 h), the GFP and RFP fluorescence was measured using a 96 well microplate reader (Synergy, BioTek Instruments). […] Selected compounds show different levels of modulation of coronin 1 promoter driven GFP and CMV promoter driven RFP fluorescence. GFP and RFP fluorescence were analyzed with a microplate reader upon incubation with the top coronin 1 promoter inhibiting compounds. Shown are percentage of GFP reduction (left column) and percentage of RFP reduction (right column) for the compounds at 5 μg/ml concentration at 48 h. Cycloheximide (CHX) serves as positive control whereas media and DMSO serve as negative controls. […] Cells were imaged using a fluorescence microscope to validate fluorescence inhibition (FIG. 3A) and as well assess morphology and viability (in addition to GFP down regulation confirmation). In addition, quantitative Polymerase Chain Reaction (qPCR) for coronin 1 mRNA transcripts reveal reduction with compound 11 (FIG. 3B). The primers used for the qPCR on RBL cells are listed below as follows;

Experiment [4] concerns early cytomegalovirus promoter. Description: Screening assay control: CMV promoter driven RFP in RBL cells (microplate reader). Format: cell-based. To be noted: 5 μg/ml, 48 h, microplate reader, DMSO = 100, read-out: RFP values (%). The protocol: As an unrelated promoter, the early cytomegaloviral promoter element was cloned into a promoterless Red Fluorescence Protein (RFP) expression plasmid. Rat Basophil Leukemia (RBL) cells were transfected with the plasmid, stable RFP expressing cells enriched, incubated with various compounds and were assessed for red fluorescence values. Analyzing the inhibition of an unrelated promoter (in this case, early cytomegalovirus promoter) that drove Red Fluorescence Protein (RFP) expression assessed non-specificity of the compound under analysis.
The plasmids were independently transfected into immune cells (Rat basophil Leukemia, RBL cells) to generate green and red fluorescent RBL cells that were subsequently enriched by means of flow cytometry. These cells were then mixed in equal ratio (1:1) and incubated in a 96 well plate at 100,000 cells/well in a volume of 200 μl of phenol red free RPMI supplemented with 8% fetal calf serum, L-glutamate and antibiotics (penicillin, streptomycin) and various compounds (3 and 5 μg/ml concentrations) from available chemical libraries. At defined time points (8 h, 24 h and 48 h), the GFP and RFP fluorescence was measured using a 96 well microplate reader (Synergy, BioTek Instruments). […] Selected compounds show different levels of modulation of coronin 1 promoter driven GFP and CMV promoter driven RFP fluorescence. GFP and RFP fluorescence were analyzed with a microplate reader upon incubation with the top coronin 1 promoter inhibiting compounds. Shown are percentage of GFP reduction (left column) and percentage of RFP reduction (right column) for the compounds at 5 μg/ml concentration at 48 h. Cycloheximide (CHX) serves as positive control whereas media and DMSO serve as negative controls. […] Cells were imaged using a fluorescence microscope to validate fluorescence inhibition (FIG. 3A) and as well assess morphology and viability (in addition to GFP down regulation confirmation). In addition, quantitative Polymerase Chain Reaction (qPCR) for coronin 1 mRNA transcripts reveal reduction with compound 11 (FIG. 3B). The primers used for the qPCR on RBL cells are listed below as follows;

For the next experiment, the system named is coronin 1. Description: Western blotting of coronin 1 protein levels in RBL cells. The format is cell-based, Rat. To be noted: 2 μg/ml, RBL cells. On the procedure:
buffer with 0.2% SDS containing protease and phosphatase inhibitors (Roche) at 4° C., followed by protein determination (BCA, Pierce) and SDS-PAGE with equal protein amounts transferred onto nitrocellulose and probed using antibodies against the indicated proteins (actin and coronin 1) followed by HRP-labeled secondary antibodies and developed using an enhanced chemi-luminescence imager (Fuji) (FIG. 3C).
On the technique in general: A western blot detects proteins with antibodies after separation by electrophoresis.

The next experiment deals with T1, BRD3 BD1 (Homo sapiens, UniProt Q15059).
T1 construct: T7 phage display (bromodomain fused to phage); purchased Eurofins (bromoscan service); host or cells: E. coli host derived from BL21, T7 phage
T1 sequence (Q15059 34-140 limits assumed): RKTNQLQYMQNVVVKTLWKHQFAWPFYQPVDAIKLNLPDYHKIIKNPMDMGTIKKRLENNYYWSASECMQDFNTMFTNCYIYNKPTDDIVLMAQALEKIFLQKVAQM
Description: Bromoscan (Eurofins) binding: BRD3 BD1. The protocol: (§2) Following the initial data from TPP, to further confirm the interaction of compound with BRD3, an in-vitro assay system named bromoscan (Eurofins) was employed to analyse the affinity of the (4S,7R)-configurated compound 12e against the two bromodomains of BRD3.
T7 phage strains displaying bromodomains were grown in 24-well blocks in an E. coli host derived from the BL21 strain. E. coli were grown to log-phase and infected with T7 phage from a frozen stock (multiplicity of infection=0.4) and incubated with shaking at 32° C. until lysis (90-150 minutes). The lysates were centrifuged (5,000×g) and filtered (0.2 μm) to remove cell debris. Streptavidin-coated magnetic beads were treated with biotinylated small molecule or acetylated peptide ligands for 30 minutes at room temperature to generate affinity resins for bromodomain assays. The liganded beads were blocked with excess biotin and washed with blocking buffer (SeaBlock (Pierce), 1% BSA, 0.05% Tween 20, 1 mM DTT) to remove unbound ligand and to reduce non-specific phage binding. […] Test compounds were prepared as 1000× stocks in 100% DMSO. Kds were determined using an 11-point 3-fold compound dilution series with one DMSO control point. All compounds for Kd measurements are distributed by acoustic transfer (non-contact dispensing) in 100% DMSO. […] The bromodomain concentration in the eluates was measured by qPCR. […]

Another experiment deals with T2, BRD3 BD2 (Homo sapiens, UniProt Q15059).
T2 construct: T7 phage display (bromodomain fused to phage); purchased Eurofins (bromoscan service); host or cells: E. coli host derived from BL21, T7 phage
T2 sequence (Q15059 306-415 limits assumed): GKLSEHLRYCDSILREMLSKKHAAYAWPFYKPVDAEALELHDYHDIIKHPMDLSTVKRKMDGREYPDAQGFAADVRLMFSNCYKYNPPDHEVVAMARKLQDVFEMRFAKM
Description: Bromoscan (Eurofins) binding: BRD3 BD2. The protocol: as §2
T7 phage strains displaying bromodomains were grown in 24-well blocks in an E. coli host derived from the BL21 strain. E. coli were grown to log-phase and infected with T7 phage from a frozen stock (multiplicity of infection=0.4) and incubated with shaking at 32° C. until lysis (90-150 minutes). The lysates were centrifuged (5,000×g) and filtered (0.2 μm) to remove cell debris. Streptavidin-coated magnetic beads were treated with biotinylated small molecule or acetylated peptide ligands for 30 minutes at room temperature to generate affinity resins for bromodomain assays. The liganded beads were blocked with excess biotin and washed with blocking buffer (SeaBlock (Pierce), 1% BSA, 0.05% Tween 20, 1 mM DTT) to remove unbound ligand and to reduce non-specific phage binding. […] Test compounds were prepared as 1000× stocks in 100% DMSO. Kds were determined using an 11-point 3-fold compound dilution series with one DMSO control point. All compounds for Kd measurements are distributed by acoustic transfer (non-contact dispensing) in 100% DMSO. The compounds were then diluted directly into the assays such that the final concentration of DMSO was 0.09%. All reactions performed in polypropylene 384-well plates. Each was a final volume of 0.02 ml. The assay plates were incubated at room temperature with shaking for 1 hour and the affinity beads were washed with wash buffer (1×PBS, 0.05% Tween 20). The beads were then resuspended in elution buffer (1×PBS, 0.05% Tween 20, 2 μM non-biotinylated affinity ligand) and incubated at room temperature with shaking for 30 minutes. The bromodomain concentration in the eluates was measured by qPCR. The bromoscan analysis was done at Eurofins (FIG. 15).

For experiment [5], the system named is imiquimod-induced psoriasis. Description: Imiquimod-induced mouse model for psoriasis. The format is in vivo, mice (Balb/c). Conditions: 50 mg/kg body weight, twice daily, topical route, day 4. The protocol:
Wild type mice (Balb/c strain, 8-12 weeks), were age and sex matched. The dorsal skin was shaved with a trimmer on an area of ˜2 cm^2 and subjected to topical application of 5% imiquimod cream (Aldara) starting from day 1 and continued for up to 7 days in the morning. For compound administration, mice were applied topically with the compound, twice a day starting 48 hours before the first Imiquimod application and all along of the experiment up to day 7. In the morning, compound was applied 2 h prior to the imiquimod application (FIG. 12A). Mice were scored every day for the inflammatory lesion and general health status as follows: […]

Take `COc1cc2c(cc1-c1c(C)noc1C)ncc1[nH]c(=O)n([C@H](C)c3ccccn3)c12` [IBET-151]: the “thermal stabilization of BRD2, BRD3 and BRD4 proteins” value (“thermal stabilization of BRD2” below) in [1] was “thermal stabilization”.
Take `Cc1sc2c(c1C)C(c1ccc(Cl)cc1)=N[C@@H](CC(=O)OC(C)(C)C)c1nnc(C)n1-2` [JQ1]: in experiment [1], the “thermal stabilization of BRD2” value was “thermal stabilization”.
As to `COc1ccccc1C1CC(=O)C2=C(C1)NC(C)=C(C(=O)OC1CCOCC1)C2c1cccc(O)c1` (centres unmarked) [compound 13, tetrahydro-2H-pyran-4-yl-4-(3-hydroxyphenyl)-7-(2-methoxyphenyl)-2-methyl-5-oxo-1,4,5,6,7,8-hexahydro-3-quinolinecarboxylate], the EC50 in the experiment with CMV promoter is over 2500 nM; with RBL cells, over 2500 nM; in the experiment on coronin 1 promoter [2], 120 nM.
As to `CC(=O)Nc1c(F)cc(C(=O)N[C@H]2CC[C@H](O)CC2)cc1O[C@@H](C)c1ccccc1` [IBET-BD2], the “thermal stabilization of BRD2” value in experiment [1] is recorded as “thermal stabilization”.
`COc1ccccc1C1CC(=O)C2=C(C1)NC(C)=C(C(=O)OCC1CCCO1)C2c1ccccc1F` (centres unmarked) [Comp. 10, tetrahydro-2-furanylmethyl-4-(2-fluorophenyl)-7-(2-methoxyphenyl)-2-methyl-5-oxo-1,4,5,6,7,8-hexahydro-3-quinolinecarboxylate]: the activity at 5 µg/mL in the experiment with coronin 1 promoter [3] amounted to 48%; in experiment [4] it was 110%. Moreover, the results for the EC50 with CMV promoter, with RBL cells and with coronin 1 promoter [2] were 1000 nM, over 7500 nM and 800 nM, respectively.
For the compound `COc1cc(OC)c2c(=O)[nH]c(-c3cc(C)c(OCCO)c(C)c3)nc2c1` [RVX-208], in experiment [1], the “thermal stabilization of BRD2” value was “thermal stabilization”.
The term Kd denotes the constant that tells how readily two partners part at equilibrium. Read a low Kd as a tighter complex. On to `COc1ccccc1[C@H]1CC(=O)C2=C(C1)NC(C)=C(C(=O)OC1CCOCC1)[C@H]2c1cccc(O)c1` [13a, tetrahydro-2H-pyran-4-yl (4S, 7R)-4-(3-hydroxyphenyl)-7-(2-methoxyphenyl)-2-methyl-5-oxo-1,4,5,6,7,8-hexahydro-3-quinolinecarboxylate], for which the “coronin 1 depletion by Western blot” value in the experiment on coronin 1 is “showed coronin 1 depletion”. For the same compound, the values for the Kd at BRD3 BD1 and on BRD3 BD2 were 150 nM and 4 nM, respectively. For the same compound, the EC50 is over 2500 nM in the experiment with CMV promoter, over 2500 nM in the experiment on RBL cells and 65 nM in the experiment on coronin 1 promoter [2]. Further, at BRD3 BD2, the “relative affinity for BRD3 bromodomains BD1 and BD2” value was “higher affinity for the BD2 domain”. In experiment [5], the “disease score (erythema, surface area affected, psoriatic plaque formation)” value was “suppresses autoimmune-inflammatory disease severity”. Moreover, in the experiment with coronin 1 promoter [2] ([EC50 GFP inhibition 13a]/[EC50 GFP inhibition compound of interest], 13a = 1.00), the “rel. potency GFP inhibition” value is recorded as 1.00.
Turning to `COc1ccccc1C1CC(=O)C2=C(C1)NC(C)=C(C(=O)OCC1CCCO1)C2c1cccc(O)c1` (centres unmarked) [Comp. 12, tetrahydro-2-furanylmethyl-4-(3-hydroxyphenyl)-7-(2-methoxyphenyl)-2-methyl-5-oxo-1,4,5,6,7,8-hexahydro-3-quinolinecarboxylate], the activity at 5 µg/mL worked out at 46% in the experiment on coronin 1 promoter [3] and 153% in experiment [4]. Further, the results for the EC50 in the experiment on CMV promoter, in the experiment on RBL cells and with coronin 1 promoter [2] were over 1000 nM, over 3000 nM and 340 nM, respectively.
